One series relates to H1a-luc or Zluc cells. Put plainly: in vitro. The format is cell-based, human. As to conditions: Table 1B, cellular viability. The protocol:
For cytotoxicity evaluation, HPC cells were treated with compounds as described above in the absence of the genotype 2a virus and cellular viability was monitored using the Cell Titer 96 AQueous One Solution Cell Proliferation Assay (Promega). Plates were then read at 490 nm in a Victor^3V 1420 multilabel counter (Perkin Elmer) and CC50 concentrations were determined using Microsoft Excel and XLfit 4.1 software.
For cytotoxicity evaluation, H1a-luc or Zluc cells were treated with compounds as described above and cellular viability was monitored using the Cell Titer 96 AQueous One Solution Cell Proliferation Assay (Promega). Plates were then read at 490 nm in a Victor^3V 1420 multilabel counter (Perkin Elmer) and CC50 concentrations were determined using Microsoft Excel and XLfit 4.1 software.

The subject of series [1] is HCV genotype 1b Con1 strain subgenomic luciferase replicon (Zluc). Put plainly: Luciferase replicon assay, genotype 1b. The format is cell-based. The note with it: Hepatitis C virus. The protocol:
(§1) The HCV luciferase replicon assay measures the ability of a test compound to inhibit HCV replication in cell culture after 3 days of treatment in a human hepatoma cell line (Huh-7) bearing an HCV replicon containing a luciferase-neomycin phosphotransferase fusion gene. The inhibition of HCV replication was measured by quantification of luciferase protein expression. Briefly, Huh-7 cells containing either the HCV genotype 1a H77 strain or genotype 1b Con1 strain subgenomic luciferase replicon (H1a-luc or Zluc, respectively) were grown in DMEM containing glucose, L-glutamine and sodium pyruvate, 10% fetal bovine serum (FBS), 100 IU/mL penicillin, 100 μg/mL streptomycin, 2 mM GlutaMAX, non-essential amino acids and 0.25 (H1a-luc) or 0.5 (Zluc) mg/mL G418. GlutaMAX was obtained from Invitrogen, Corp.; all other media reagents were obtained from Mediatech, Inc. For dose-response testing, the cells were seeded in 96-well plates at 1×10^4 (H1a-luc) or 7.5×10^3 (Zluc) cells/well in a volume of 50 μL, and incubated at 37° C./5% CO2. Three hours after plating, 50 μL of ten 5-fold serial dilutions of compound were added, and cell cultures were incubated at 37° C./5% CO2 for 72 hours. In all cases, Huh-7 cells lacking the HCV replicon served as negative control. To assess luciferase expression, the media/compound was removed from the plates and ONE-glo Luciferase assay reagent (Promega) was added to each well. The assay plates were shaken for 3 minutes at room temperature and luciferase activity for each well was measured with a 1 sec read time on the Victor^3V multilabel counter using a 700 nm cut-off filter (Perkin Elmer). EC50 values were calculated from dose response curves from the resulting best-fit equations determined by Microsoft Excel and XLfit 4.1 software.
For orientation: A replicon is a self-replicating genome or part of one, used to study replication in cells.

Series [2] has as its system HCV genotype 1a H77 strain subgenomic luciferase replicon (H1a-luc). Put plainly: Luciferase replicon assay, genotype 1a. The format is cell-based. As to conditions: Hepatitis C virus, read-out: EC50 1a. The protocol: (§2) Drug titration analysis was performed using the luciferase replicon assay described herein.
as §1

A further series deals with HCV genotype 2a. Nature of the series: Genotype 2a assay (NS5A-intergenotypic luciferase replicon / genotype 2a infectious virus assay). As to conditions: Hepatitis C virus, read-out: EC50 2a. The format is cell-based.
Source text: (§3) The nucleotide sequences of the NS5A region of genotype 2a (GenBank Accession # AB047639), genotype 3a (GenBank Accession #D17763), and genotype 4a (GenBank Accession# DQ418788) were synthesized by an outside vendor. The NS5A region of each of these genotypes included the first 11 amino acids of the protease recognition sequence of genotype 1b, as well as the last 10 amino acids of genotype 1b. The NS5A gene cassettes were excised with site specific restriction endonucleases and ligated into a ZS11-luciferase genotype 1b backbone (backbone contains the genotype 1b NS3 protease, NS4a, NS4b, and NS5b coding regions) with similarly cut restriction enzyme sites. Thus, the newly constructed plasmid contains a genotype 2a-, 3a- or 4a-specific NS5A gene within the 1b-replicon.
(§4) These new intergenotypic plasmids were used to establish stable cell lines. RNA was generated from the NS5A intergenotypic plasmids and used in conjunction with a lipofectin reagent to transfect a cured Huh7 cell line. Transfected cells were selected for with G418. After selection has occurred the stable cell lines were propagated, tested for luciferase activity, and RT-PCR with genotype specific primers (either 1a, 2a, 3a, or 4a). Stable cell lines containing the intergenotypic replicon were then fully sequenced and analyzed for proper expression of NS3, NS5A and NS5B proteins.
as §2
The genotype 2a infectious virus assay measures the ability of a test compound to inhibit HCV replication in cell culture after 5 days of treatment at the time of HCV genotype 2a virus infection of a permissive human hepatoma cell line (HPC cells). The inhibition of HCV replication was measured by quantification of HCV core protein expression by an enzyme-linked immunosorbent assay (ELISA). Briefly, HPC cells were grown in DMEM containing glucose, L-glutamine and sodium pyruvate, 10% FBS, 100 IU/mL penicillin, 100 μg/mL streptomycin, 2 mM GlutaMAX, and non-essential amino acids. GlutaMAX was obtained from Invitrogen, Corp.; all other media reagents were obtained from Mediatech, Inc. For dose-response testing, ninety-six-well plates were seeded with HPC cells at a density of 2.5×10^3 cells/well in a volume of 50 μL, and incubated at 37° C./5% CO2. Three hours after plating, 50 μL of ten 5-fold serial dilutions of compound and 100 μL of genotype 2a virus were added, and cell cultures were incubated at 37° C./5% CO2. In all cases, mock infected HPC cells served as negative control. At 16 hours post treatment and infection, the virus inoculum was removed by aspiration. The cultures were treated at the same final concentrations of drug diluted in media and incubated for 4 additional days at 37° C./5% CO2. Subsequently, the core ELISA was performed as follows. The plates were fixed for 90 seconds with acetone/methanol (1:1, v/v), washed three times with KPL wash solution (KPL, Inc.), blocked for 1 hr at room temperature with TNE buffer containing 10% FBS and then incubated for 2 hr at 37° C. with the anti-HCV core mouse monoclonal antibody (Thermo Scientific) diluted in the same buffer. After washing three times with KPL wash solution, the cells were incubated for 1 hr at 37° C. with an anti-mouse immunoglobulin G-peroxidase conjugate in TNE/10% FBS. After washing as described above, the reaction was developed with O-phenylenediamine (Invitrogen). The reaction was stopped after 30 min with 2 NH2SO4, and absorbance was read at 490 nm in a Victor^3V 1420 multilabel counter (Perkin Elmer) and EC50 concentrations were determined using Microsoft Excel and XLfit 4.1 software.
The HCV luciferase replicon assay measures the ability of a test compound to inhibit HCV replication in cell culture after 3 days of treatment in a human hepatoma cell line (Huh-7) bearing an HCV replicon containing a luciferase-neomycin phosphotransferase fusion gene. […]

In series [3] the test system is HCV genotype 4a NS5A within the 1b-replicon. Nature of the series: Luciferase replicon assay, NS5A-intergenotypic stable cell line genotype 4a. The format is cell-based. The note with it: Hepatitis C virus, read-out: EC50 4a.
Source text: as §3, §4, §2, §1

Series [4] relates to HCV genotype 3a NS5A within the 1b-replicon. Nature of the series: Luciferase replicon assay, NS5A-intergenotypic stable cell line genotype 3a. The format is cell-based. As to conditions: Hepatitis C virus, read-out: EC50 3a.
Source text: as §3, §4, §2, §1

The subject of series [5] is 1a-luc WT (HCV genotype 1a replicon). Put plainly: Luciferase replicon transient transfection assay, 1a-luc WT. The format is cell-based. The note with it: Hepatitis C virus, 96 h, Huh7.5 cells, 4 days. On the procedure:
(§5) The luciferase replicon transient transfection assay measures the ability of a test compound to inhibit the replication of a transiently-transfected HCV luciferase-bearing wild-type or mutant replicon in cured human hepatoma cells (Huh7.5). The inhibition of HCV replication was measured by quantification of luciferase protein expression. This assay has been validated using a panel of genotype 1a and 1b replicons bearing mutations known to be associated with resistance to BMS-790052. Briefly, subconfluent Huh7.5 cells were electroporated with 10 μg of wild-type or mutant luciferase-bearing HCV replicon RNA. The cells were then seeded in 96-well opaque white plates at 3×10^4 cells/well in 150 μL/well and incubated for 4 hrs at 37° C./5% CO2. Ten 1:5 serial dilutions of each test compound were made in media (DMEM containing glucose, L-glutamine and sodium pyruvate, 10% fetal bovine serum, 100 IU/mL penicillin, 100 μg/mL streptomycin, 2 mM GlutaMAX, and 1×MEM non-essential amino acids (Mediatech, Inc. and Invitrogen Corp.)) at concentrations that were 4× higher than the final concentrations to be tested and 50 μL/well was added to the transfected cells. Untreated, mock-transfected cells served as a negative control of luciferase expression. The plates were incubated at 37° C./5% CO2 for 4 days whereupon the media was removed and 50 μL of ONE-glo luciferase substrate (Promega) was added to each well. The plates were agitated on a rotating platform at room temperature for 3 min and read in a Victor^3V microplate reader (Perkin-Elmer) using a 700 nm cut-off filter with a 1 sec read time. EC50 values were calculated from dose response curves from the resulting best-fit equations determined by Microsoft Excel and XLfit 4.1 software.

In series [6] the test system is ZS11-luc WT (HCV genotype 1b replicon). Nature of the series: Luciferase replicon transient transfection assay, ZS11-luc WT. The format is cell-based, hepatitis C virus. The note with it: Hepatitis C virus, Huh7.5, 96 h, genotype 1b, ZS11-luc WT, Huh7.5 cells, 4 days. On the procedure: as §5
The subject of series [7] is 1a-luc Y93H (HCV genotype 1a replicon). Nature of the series: Luciferase replicon transient transfection assay, 1a-luc Y93H. The format is cell-based, hepatitis C virus. The note with it: for EC50: Hepatitis C virus, 96 h, Huh7.5 cells, 4 days. On the procedure: as §5
For series [8], the system named is ZS11-luc Y93H (HCV genotype 1b replicon). Nature of the series: Luciferase replicon transient transfection assay, ZS11-luc Y93H. The format is cell-based, hepatitis C virus. As to conditions: for EC50: Hepatitis C virus, 96 h, Huh7.5 cells, 4 days. On the procedure:
as §5

Series [9] concerns 1a-luc L31V (HCV genotype 1a replicon). Nature of the series: Luciferase replicon transient transfection assay, 1a-luc L31V. The format is cell-based, hepatitis C virus. As to conditions: for EC50: Hepatitis C virus, 96 h, Huh7.5 cells, 4 days. The protocol: as §5
Series [10] has as its system ZS11-luc L31V (HCV genotype 1b replicon). Put plainly: Luciferase replicon transient transfection assay, ZS11-luc L31V. The format is cell-based, hepatitis C virus. As to conditions: for EC50: Hepatitis C virus, 96 h, Huh7.5 cells, 4 days. The protocol: as §5
Series [11] has as its system 1a-luc Q30E (HCV genotype 1a replicon). Nature of the series: Luciferase replicon transient transfection assay, 1a-luc Q30E. The note with it: for EC50: Hepatitis C virus, 96 h, Huh7.5 cells, 4 days. The format is cell-based, hepatitis C virus. On the procedure:
as §5

The source of these data is patent US20120252721A1 (priority 2011, published 2012).

SMILES strings stand for the structures. A value given as a limit tells only on which side of the number the result lay.

In general, CC50 refers to the concentration at which the toxic effect on the cells reaches its halfway point. The low end stands for harm at low concentration, the high end for better tolerance by the cells. As a reminder, the EC50 is the concentration needed to bring the measured effect to its halfway point. As to `COC(=O)N[C@H](C(=O)N1CCCC1c1nc(-c2cc3sc(-c4cnc([C@@H]5CCCN5C(=O)[C@@H](NC(=O)OC)C(C)C)[nH]4)cc3s2)c[nH]1)C(C)C` (stereo partly drawn) [Compound A101], the CC50 with H1a-luc or Zluc cells is greater than 75000 nM. The EC50 in series [1] was less than 0.1 nM; in [2], 10 to 100 nM; with HCV genotype 2a, 1 to 10 nM; in series [3], 1 to 10 nM; in [4], 1 to 10 nM.

Compound `COC(=O)N[C@H](C(=O)N1CCC[C@H]1c1ncc(-c2csc3c(-c4ccc5[nH]c([C@@H]6CCCN6C(=O)[C@@H](NC(=O)OC)C(C)C)nc5c4)csc23)[nH]1)C(C)C` [Compound A173, ((S)-1-{(S)-2-[6-(6-{(S)-2-[1-((S)-2-methoxycarbonylamino-3-methyl-butyryl)-pyrrolidin-2-yl]-1H-imidazol-4-yl}-thieno[3,2-b]thiophen-3-yl)-1H-benzoimidazol-2-yl]-pyrrolidine-1-carbonyl}-2-methyl-propyl)-carbamic acid methyl ester] returned a half-maximal cytotoxic concentration (CC50) in the series with H1a-luc or Zluc cells of 10000 to 75000 nM. In addition, the EC50 was less than 0.1 nM in series [1]; 10 to 100 nM in series [2]; 1 to 10 nM in the series with HCV genotype 2a; 1 to 10 nM in series [3]; 1 to 10 nM in series [4].

Consider `COC(=O)N[C@H](C(=O)N1CCC[C@H]1c1ncc(-c2ccc(-c3cc4sc(-c5ccc(-c6c[nH]c(C7CCCN7C(=O)[C@H](NC(=O)OC)c7ccccc7)n6)cc5)cc4s3)cc2)[nH]1)C(C)C` (stereo partly drawn) [Compound A192], for which the half-maximal effective concentration (EC50) in [5] turned out to be 0.02 nM; in [6], 0.003 nM; in [7] it was 79 nM; in [8] it was 0.4 nM; in [9], 11 nM; in [10] it was 0.05 nM. This compound showed an EC50 in [11] of 9 nM. The Ratio in [7] was determined as 5072; in [8], 138; in series [9], 678; in [10] it was 20; in series [11], 597.

Turning to `COC(=O)N[C@H](C(=O)N1CCCC1c1ncc(-c2csc3c(-c4ccc(-c5cnc(C6CCCN6C(=O)C(c6ccccc6)N6CCCCC6)[nH]5)cc4)csc23)[nH]1)C(C)C` (stereo partly drawn) [Compound A219], the EC50 in [5] was 0.04 nM; in series [6] it was 0.01 nM; in series [7] it was 210 nM; in series [8], 0.6 nM; in [9], 18 nM; in [10] it was 0.05 nM. In series [11], this compound registered an EC50 of 1 nM. Moreover, the Ratio in series [7] is on record as 4841; in series [8], 49; in [9], 442; in [10] it was 4; in series [11], 25.
